Article PMC8247773, “Benzohydrazide and Phenylacetamide Scaffolds: New Putative ParE Inhibitors” (Frontiers in Bioengineering and Biotechnology, 2021)
Values after ≈ are worked out from the molar mass of the structure shown.

What was measured:
[1] = test system: Escherichia coli (NCIM 2567); set-up: method as in Yele et al., 2020, 2021; details: ref Yele et al., 2020, 2021; cited from earlier work
[2] = test system: Escherichia coli (NCIM 2065); assay: Antibacterial susceptibility test, microbroth dilution MIC; assay type: cell-based; details: E. Coli (NCIM 2065); mean ± SD
MRSA (NCIM 5021) [3] = assay: Minimum bactericidal concentration (MBC); assay type: cell-based, methicillin-resistant Staphylococcus aureus
Method: (§1) MBC can be defined as the minimum concentration of a compound required to kill the bacteria over a fixed period under precise conditions. […] Colonies were counted, and colony forming unit (CFU) per milliliter was calculated.

[4] = test system: Mycobacterium tuberculosis (NCIM 2984); set-up: method as in Yele et al., 2020, 2021; details: ref Yele et al., 2020, 2021; cited from earlier work
[5] = test system: Bacillus subtilis (NCIM 2545); set-up: method as in Yele et al., 2020, 2021; details: ref Yele et al., 2020, 2021; cited from earlier work
[6] = test system: Staphylococcus aureus (NCIM 5022); set-up: method as in Yele et al., 2020, 2021; details: ref Yele et al., 2020, 2021; cited from earlier work
[7] = test system: Staphylococcus epidermis (NCIM 2493); set-up: method as in Yele et al., 2020, 2021; details: ref Yele et al., 2020, 2021; cited from earlier work
[8] = test system: Escherichia coli (NCIM 2065); assay: Minimum bactericidal concentration (MBC); assay type: cell-based; details: E. Coli (NCIM 2065); for MBC/MIC: ratio ≤2 bactericidal, ≥4 tolerance
Method: as §1

[9] = test system: Klebsiella pneumonia (NCIM 2706); set-up: method as in Yele et al., 2020, 2021; details: ref Yele et al., 2020, 2021; cited from earlier work
MRSA (ATCC43300) [10] = assay: Antibacterial susceptibility test, microbroth dilution MIC; assay type: cell-based, methicillin-resistant Staphylococcus aureus; details: mean ± SD
MRSA (NCIM 5021) [11] = assay: as above; assay type: cell-based, methicillin-resistant Staphylococcus aureus; details: mean ± SD
[12] = test system: Pseudomonas aeruginosa (NCIM 2036); set-up: method as in Yele et al., 2020, 2021; details: ref Yele et al., 2020, 2021; cited from earlier work
E. coli ParE enzyme = target: T1, E. coli ParE enzyme (Escherichia coli, UniProt P20083); assay: E. coli ParE ATPase enzyme inhibition assay (ProFoldin kit, malachite green); assay type: biochemical; details: ATPase activity, mean ± SD (n = 3)
T1 construct: purchased ProFoldin, Hudson, United States
T1 sequence (P20083 whole entry): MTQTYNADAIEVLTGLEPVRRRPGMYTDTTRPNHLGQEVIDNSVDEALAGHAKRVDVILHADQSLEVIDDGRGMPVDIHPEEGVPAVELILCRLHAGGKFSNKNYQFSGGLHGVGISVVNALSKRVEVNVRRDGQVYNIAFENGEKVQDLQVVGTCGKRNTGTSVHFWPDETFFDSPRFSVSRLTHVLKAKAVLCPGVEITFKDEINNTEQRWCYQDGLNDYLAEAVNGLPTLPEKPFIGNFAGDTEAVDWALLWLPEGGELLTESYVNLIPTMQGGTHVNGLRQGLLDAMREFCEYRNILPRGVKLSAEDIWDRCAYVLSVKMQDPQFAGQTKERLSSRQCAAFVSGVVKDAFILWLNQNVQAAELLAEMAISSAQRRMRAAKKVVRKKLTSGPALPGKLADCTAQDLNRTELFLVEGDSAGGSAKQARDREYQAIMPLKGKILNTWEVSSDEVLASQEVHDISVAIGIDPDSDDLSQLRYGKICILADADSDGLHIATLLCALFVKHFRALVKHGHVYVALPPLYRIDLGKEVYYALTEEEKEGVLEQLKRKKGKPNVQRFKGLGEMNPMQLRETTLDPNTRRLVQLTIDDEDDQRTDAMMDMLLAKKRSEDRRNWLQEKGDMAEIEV
T1 sequence (P0AFI2 whole entry, further chain): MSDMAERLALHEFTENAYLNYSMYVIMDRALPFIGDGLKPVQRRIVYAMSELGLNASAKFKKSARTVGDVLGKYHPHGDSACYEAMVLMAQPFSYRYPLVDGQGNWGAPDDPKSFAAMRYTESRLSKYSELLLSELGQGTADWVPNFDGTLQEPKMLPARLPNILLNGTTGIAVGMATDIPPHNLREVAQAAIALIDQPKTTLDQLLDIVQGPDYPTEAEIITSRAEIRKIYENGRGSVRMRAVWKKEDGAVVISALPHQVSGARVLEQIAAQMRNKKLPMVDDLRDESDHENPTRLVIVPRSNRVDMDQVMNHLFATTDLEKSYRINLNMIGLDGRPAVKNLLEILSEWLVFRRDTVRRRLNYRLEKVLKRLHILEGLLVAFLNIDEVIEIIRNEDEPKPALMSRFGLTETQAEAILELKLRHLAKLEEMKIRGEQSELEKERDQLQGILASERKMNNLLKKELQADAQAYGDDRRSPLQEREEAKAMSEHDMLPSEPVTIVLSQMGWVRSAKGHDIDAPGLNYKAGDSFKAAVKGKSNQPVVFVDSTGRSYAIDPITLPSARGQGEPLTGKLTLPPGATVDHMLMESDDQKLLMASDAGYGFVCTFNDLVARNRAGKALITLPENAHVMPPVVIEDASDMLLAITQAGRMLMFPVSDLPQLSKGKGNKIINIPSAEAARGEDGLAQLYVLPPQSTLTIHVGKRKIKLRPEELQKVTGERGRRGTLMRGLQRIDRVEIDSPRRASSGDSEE
Method: The assay was performed as per the standard protocol provided by the ProFoldin. […] ParE hydrolyzes ATP as the source of molecular energy to perform decatenation reactions. Fluoroquinolones and aminocoumarins usually block ATPase activity to hinder the biological activities of topoisomerase II. Thus, the topoisomerase ATPase assay can be used for high-throughput screening of topoisomerase inhibitors. The ATPase activity of the E. coli ParE enzyme was based on the detection of inorganic phosphate produced by the hydrolysis of ATP in the presence of DNA. The phosphate is detected using a microplate reader at an absorbance wavelength of 650 nm. The selected compounds were tested for the inhibition of ATPase activity of ParE enzyme. […] The reaction mixture was incubated for 1 h at 37°C and then quenched with 45 μL of Dye. Incubate for 5 min, and the absorbance was measured at 650 nm. The IC50 values were determined from the absorbance readings using no enzyme and no compound controls. They were calculated using the non-linear regression curve fit method.

E. coli = assay: Checkerboard synergy with FDA approved drugs; assay type: cell-based, Escherichia coli
MRSA (ATCC43300) [13] = assay: Minimum bactericidal concentration (MBC); assay type: cell-based, methicillin-resistant Staphylococcus aureus
Method: as §1

[14] = FIC of compound 5 in combination
[15] = FIC of compound 21 in combination with the row's drug
[16] = FIC of the drug in combination with compound 5
[17] = FIC of the drug in combination with compound 21

Question: For `COc1ccc(OCC(=O)Nc2ccc(Cl)cc2)cc1` [Compound 28], which “Minimum inhibitory concentration (MIC) E. c” value [1] is on record?
Answer: 0.88

Question: What about the Minimum inhibitory concentration [2] of the same molecule?
Answer: 1.88 ± 0.11 µg/mL (≈ 6.44 µM)

Question: And the MBC (MRSA (NCIM 5021) [3])?
Answer: 10.62 ± 0.44 µg/mL (≈ 36.4 µM)

Question: What about the MBC/MIC (MRSA (NCIM 5021) [3]) of the same molecule?
Answer: 4

Question: What about the “Minimum inhibitory concentration (MIC) M. t” value [4] of the same molecule?
Answer: 1.47

Question: What about the “Minimum inhibitory concentration (MIC) B. s” value [5] of the same molecule?
Answer: 2.04

Question: What about the “Minimum inhibitory concentration (MIC) S. a” value [6] of the same molecule?
Answer: 1.21

Question: What about the “Minimum inhibitory concentration (MIC) S. e” value [7] of the same molecule?
Answer: 0.71

Question: What about the MBC [8] of the same molecule?
Answer: 3.85 ± 0.25 µg/mL (≈ 13.2 µM)

Question: And the MBC/MIC [8]?
Answer: 2

Question: And the “Minimum inhibitory concentration (MIC) K. p” value [9]?
Answer: 1.98

Question: What about the Minimum inhibitory concentration (MRSA (ATCC43300) [10]) of the same molecule?
Answer: 2.04 ± 0.16 µg/mL (≈ 6.99 µM)

Question: What about the Minimum inhibitory concentration (MRSA (NCIM 5021) [11]) of the same molecule?
Answer: 2.70 ± 0.22 µg/mL (≈ 9.26 µM)

Question: What about the “Minimum inhibitory concentration (MIC) P. a” value [12] of the same molecule?
Answer: 5.55

Question: And the “IC50 against E. coli ParE enzyme” value (E. coli ParE enzyme)?
Answer: 1.93 µg/mL (≈ 6.62 µM)

Question: With `C[C@H]1c2cccc(O)c2C(=O)C2=C(O)[C@]3(O)C(=O)C(C(N)=O)=C(O)[C@@H](N(C)C)[C@@H]3[C@@H](O)[C@@H]21` [Doxycycline] as the molecule, how does the “FIC A” value (E. coli; [14]) read?
Answer: 0.0702

Question: And the “FIC A” value (E. coli; [15])?
Answer: 0.1813

Question: And the “FIC B” value (E. coli; [16])?
Answer: 0.0273

Question: And the “FIC B” value (E. coli; [17])?
Answer: 0.0262

Question: And the Inference (E. coli; drug combined with compound 5)?
Answer: Synergistic (synergistic when the ΣFICs is ≤ 0.5)

Question: And the “ΣFIC A + FIC B” value (E. coli; drug combined with compound 5)?
Answer: 0.0975

Question: What about the Inference (E. coli; drug combined with compound 21) of the same molecule?
Answer: Synergistic (synergistic when the ΣFICs is ≤ 0.5)

Question: And the “ΣFIC A + FIC B” value (E. coli; drug combined with compound 21)?
Answer: 0.2075

Question: With `O=C(COc1ccccc1NC(=O)CCl)Nc1ccc(S(=O)(=O)O)cc1` [Compound 6] as the molecule, how does the “Minimum inhibitory concentration (MIC) E. c” value [1] read?
Answer: 0.86

Question: And the Minimum inhibitory concentration [2]?
Answer: 1.56 ± 0.30 µg/mL (≈ 3.91 µM)

Question: What about the MBC (MRSA (NCIM 5021) [3]) of the same molecule?
Answer: 7.39 ± 0.18 µg/mL (≈ 18.5 µM)

Question: And the MBC/MIC (MRSA (NCIM 5021) [3])?
Answer: 4

Question: What about the MBC (MRSA (ATCC43300) [13]) of the same molecule?
Answer: 4.56 ± 0.08 µg/mL (≈ 11.4 µM)

Question: What about the MBC/MIC (MRSA (ATCC43300) [13]) of the same molecule?
Answer: 3

Question: What about the “Minimum inhibitory concentration (MIC) M. t” value [4] of the same molecule?
Answer: 15.23

Question: And the “Minimum inhibitory concentration (MIC) B. s” value [5]?
Answer: 3.56

Question: What about the “Minimum inhibitory concentration (MIC) S. a” value [6] of the same molecule?
Answer: 5.23

Question: What about the “Minimum inhibitory concentration (MIC) S. e” value [7] of the same molecule?
Answer: 7.89

Question: What about the MBC [8] of the same molecule?
Answer: 3.7 ± 0.12 µg/mL (≈ 9.28 µM)

Question: What about the MBC/MIC [8] of the same molecule?
Answer: 3

Question: And the “Minimum inhibitory concentration (MIC) K. p” value [9]?
Answer: 0.78

Question: And the Minimum inhibitory concentration (MRSA (ATCC43300) [10])?
Answer: 1.71 ± 0.21 µg/mL (≈ 4.29 µM)

Question: And the Minimum inhibitory concentration (MRSA (NCIM 5021) [11])?
Answer: 1.86 ± 0.10 µg/mL (≈ 4.66 µM)

Question: And the “Minimum inhibitory concentration (MIC) P. a” value [12]?
Answer: 0.64

Question: What about the “IC50 against E. coli ParE enzyme” value (E. coli ParE enzyme) of the same molecule?
Answer: 1.19 µg/mL (≈ 2.98 µM)

Question: Which “Minimum inhibitory concentration (MIC) E. c” value [1] does the source give for `O=C(COc1ccccc1NC(=O)CCl)NNC(=O)c1ccncc1` [Compound 16] here?
Answer: 2.12

Question: What about the Minimum inhibitory concentration [2] of the same molecule?
Answer: 2.60 ± 0.28 µg/mL (≈ 7.17 µM)

Question: What about the “Minimum inhibitory concentration (MIC) M. t” value [4] of the same molecule?
Answer: 1.79

Question: What about the “Minimum inhibitory concentration (MIC) B. s” value [5] of the same molecule?
Answer: 11.59

Question: And the “Minimum inhibitory concentration (MIC) S. a” value [6]?
Answer: 8.99

Question: And the “Minimum inhibitory concentration (MIC) S. e” value [7]?
Answer: 7.24

Question: What about the MBC [8] of the same molecule?
Answer: 9.12 ± 0.11 µg/mL (≈ 25.1 µM)

Question: And the MBC/MIC [8]?
Answer: 4

Question: What about the “Minimum inhibitory concentration (MIC) K. p” value [9] of the same molecule?
Answer: 2.56

Question: And the Minimum inhibitory concentration (MRSA (ATCC43300) [10])?
Answer: 2.74 ± 0.19 µg/mL (≈ 7.55 µM)

Question: What about the Minimum inhibitory concentration (MRSA (NCIM 5021) [11]) of the same molecule?
Answer: 5.65 ± 0.27 µg/mL (≈ 15.6 µM)

Question: What about the “Minimum inhibitory concentration (MIC) P. a” value [12] of the same molecule?
Answer: 3.23

Question: And the “IC50 against E. coli ParE enzyme” value (E. coli ParE enzyme)?
Answer: 2.62 µg/mL (≈ 7.22 µM)

Question: For `CO[C@H]1/C=C/O[C@@]2(C)Oc3c(C)c(O)c4c(O)c(c(/C=N/N5CCN(C)CC5)c(O)c4c3C2=O)NC(=O)/C(C)=C\C=C\[C@H](C)[C@H](O)[C@@H](C)[C@@H](O)[C@@H](C)[C@H](OC(C)=O)[C@@H]1C` [Rifampicin], which “FIC A” value (E. coli; [14]) is on record?
Answer: 0.1202

Question: And the “FIC A” value (E. coli; [15])?
Answer: 0.1942

Question: And the “FIC B” value (E. coli; [16])?
Answer: 0.0524

Question: And the “FIC B” value (E. coli; [17])?
Answer: 0.1281

Question: And the Inference (E. coli; drug combined with compound 5)?
Answer: Synergistic (synergistic when the ΣFICs is ≤ 0.5)

Question: And the “ΣFIC A + FIC B” value (E. coli; drug combined with compound 5)?
Answer: 0.1726

Question: And the Inference (E. coli; drug combined with compound 21)?
Answer: Synergistic (synergistic when the ΣFICs is ≤ 0.5)

Question: What about the “ΣFIC A + FIC B” value (E. coli; drug combined with compound 21) of the same molecule?
Answer: 0.3223

Question: Which “Minimum inhibitory concentration (MIC) E. c” value [1] does the source give for `COc1ccc(C(=O)NNC(=O)COc2ccccc2NC(=O)CCl)cc1` [Compound 13] here?
Answer: 1.92

Question: What about the Minimum inhibitory concentration [2] of the same molecule?
Answer: 2.60 ± 0.26 µg/mL (≈ 6.64 µM)

Question: What about the “Minimum inhibitory concentration (MIC) M. t” value [4] of the same molecule?
Answer: 1.33

Question: What about the “Minimum inhibitory concentration (MIC) B. s” value [5] of the same molecule?
Answer: 7.10

Question: What about the “Minimum inhibitory concentration (MIC) S. a” value [6] of the same molecule?
Answer: 3.28

Question: And the “Minimum inhibitory concentration (MIC) S. e” value [7]?
Answer: 4.15

Question: What about the MBC [8] of the same molecule?
Answer: 9.43 ± 0.11 µg/mL (≈ 24.1 µM)

Question: And the MBC/MIC [8]?
Answer: 4

Question: And the “Minimum inhibitory concentration (MIC) K. p” value [9]?
Answer: 0.89

Question: And the Minimum inhibitory concentration (MRSA (ATCC43300) [10])?
Answer: 2.47 ± 0.46 µg/mL (≈ 6.3 µM)

Question: What about the Minimum inhibitory concentration (MRSA (NCIM 5021) [11]) of the same molecule?
Answer: 8.36 ± 0.30 µg/mL (≈ 21.3 µM)

Question: And the “Minimum inhibitory concentration (MIC) P. a” value [12]?
Answer: 1.25

Question: And the “IC50 against E. coli ParE enzyme” value (E. coli ParE enzyme)?
Answer: 2.73 µg/mL (≈ 6.97 µM)
